Drawing on patent publication US8859580B2 (Boehringer Ingelheim International GmbH, priority 2007, dated 2014), this text covers IC50 for 21 molecules.

This test deals with T1, 11β-HSD1 (Homo sapiens, UniProt P28845).
T1 construct: detecting cortisol generated from cortisterone by human liver microsomes; from tissue; host or cells: human liver microsomes
Description: In vitro inhibition of 11β-HSD1, HTRF detection of cortisol generated from cortisone by human liver microsomes. Type of test: biochemical. The settings on record: 11β-HSD IC50 (nM), 1 hour at 37° C., pH 6.0, NADPH 200 μM, cortisone 80 nM, inhibition relative to carbenoxolone signal. The gist of the method:
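Inhibition expressed against the carbenoxolone signal and fitted to IC50 curves. Readout: HTRF competition between microsomal cortisol and XL665-labelled cortisol for Eu-cryptate anti-cortisol antibody (typically 2 h), with emission ratio 665/615 calibrated to cortisol concentration.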
For orientation: Time-resolved FRET reads energy transfer from a long-lived donor to a nearby acceptor.

T1 sequence (P28845 whole entry): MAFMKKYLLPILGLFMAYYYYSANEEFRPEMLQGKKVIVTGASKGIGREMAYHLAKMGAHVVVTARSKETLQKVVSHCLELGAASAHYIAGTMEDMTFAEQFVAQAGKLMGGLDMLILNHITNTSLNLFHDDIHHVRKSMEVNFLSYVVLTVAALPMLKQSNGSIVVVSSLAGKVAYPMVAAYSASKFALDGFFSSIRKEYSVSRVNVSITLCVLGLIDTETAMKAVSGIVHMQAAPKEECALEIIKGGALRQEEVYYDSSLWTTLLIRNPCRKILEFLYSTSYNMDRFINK

For the molecule `C[C@@H]1[C@H]2Cc3ccc(C(=O)O)cc3[C@]1(C)CCN2C(=O)c1ccc2nc[nH]c2c1` [Example 151, (2R,6R,11S)-3-(3H-Benzoimidazole-5-carbonyl)-6,11-dimethyl-1,2,3,4,5,6-hexahydro-2,6-methano-benzo[d]azocine-8-carboxylic acid], the half-inhibitory concentration (IC50) was 426 nM. In other words, the sub-micromolar range.

Molecule `CC1(C)[C@H]2Cc3c(C(=O)O)cccc3[C@]1(C)CCN2C(=O)c1ccc2nc[nH]c2c1` [Example 152, (2R,6S)-3-(3H-Benzoimidazole-5-carbonyl)-6,11,11-trimethyl-1,2,3,4,5,6-hexahydro-2,6-methano-benzo[d]azocine-10-carboxylic acid] showed an IC50 of 4670 nM. In turn, `CC12CCN(C(=O)c3ccc4nc[nH]c4c3)C(Cc3cc(C(=O)O)ccc31)C2(C)C` (stereo not drawn) [Example 154, 3-(3H-Benzoimidazole-5-carbonyl)-6,11,11-trimethyl-1,2,3,4,5,6-hexahydro-2,6-methano-benzo[d]azocine-9-carboxylic acid] showed an IC50 of 1660 nM. The figure for `C[C@@H]1[C@H]2Cc3ccc(C(=O)N(C)C)cc3[C@]1(C)CCN2C(=O)c1ccc2nc[nH]c2c1` [Example 155, (2R,6R,11S)-3-(3H-Benzoimidazole-5-carbonyl)-6,11-dimethyl-1,2,3,4,5,6-hexahydro-2,6-methano-benzo[d]azocine-8-carboxylic acid dimethylamide] is 354 nM; for `CNC(=O)c1ccc2c(c1)[C@]1(C)CCN(C(=O)c3ccc4nc[nH]c4c3)[C@H](C2)[C@H]1C` [Example 156, (2R,6R,11S)-3-(3H-Benzoimidazole-5-carbonyl)-6,11-dimethyl-1,2,3,4,5,6-hexahydro-2,6-methano-benzo[d]azocine-8 carboxylic acid methylamide] it is 340 nM. Regarding `C[C@@H]1[C@H]2Cc3ccc(C(N)=O)cc3[C@]1(C)CCN2C(=O)c1ccc2nc[nH]c2c1` [Example 157, (2R,6R,11S)-3-(3H-Benzoimidazole-5-carbonyl)-6,11-dimethyl-1,2,3,4,5,6-hexahydro-2,6-methano-benzo[d]azocine-8-carboxylic acid amide], half-maximal inhibition (IC50) was put at 335 nM. With `CC1(C)[C@H]2Cc3c(C(N)=O)cccc3[C@]1(C)CCN2C(=O)c1ccc2nc[nH]c2c1` [Example 160, (2R,6S)-3-(3H-Benzoimidazole-5-carbonyl)-6,11,11-trimethyl-1,2,3,4,5,6-hexahydro-2,6-methano-benzo[d]azocine-10-carboxylic acid amide], the IC50 worked out at 2180 nM.

Molecule `CN(C)C(=O)c1ccc2c(c1)CC1N(C(=O)c3ccc4nc[nH]c4c3)CCC2(C)C1(C)C` (stereo not drawn) [Example 161, 3-(3H-Benzoimidazole-5-carbonyl)-6,11,11-trimethyl-1,2,3,4,5,6-hexahydro-2,6-methano-benzo[d]azocine-9-carboxylic acid dimethylamide] displayed an IC50 of 1750 nM. This IC50 and that of the molecule before are within 1.5-fold of each other. The figure for `CNC(=O)c1ccc2c(c1)CC1N(C(=O)c3ccc4nc[nH]c4c3)CCC2(C)C1(C)C` (stereo not drawn) [Example 162, 3-(3H-Benzoimidazole-5-carbonyl)-6,11,11-trimethyl-1,2,3,4,5,6-hexahydro-2,6-methano-benzo[d]azocine-9-carboxylic acid methylamide] is 1090 nM; for `CC12CCN(C(=O)c3ccc4nc[nH]c4c3)C(Cc3cc(C(N)=O)ccc31)C2(C)C` (stereo not drawn) [Example 163, 3-(3H-Benzoimidazole-5-carbonyl)-6,11,11-trimethyl-1,2,3,4,5,6-hexahydro-2,6-methano-benzo[d]azocine-9-carboxylic acid amide] it is 249 nM; for `CCCN(C)C(=O)c1ccc(C(=O)N2CC[C@@]3(C)c4cccc(O)c4C[C@@H]2C3(C)C)cc1` [Example 167, 4-[(2R,6S)-10-Hydroxy-6,11,11-trimethyl-1,2,5,6-tetrahydro-4H-2,6-methano-benzo[d]azocine-3-carbonyl]-N-methyl-N-propyl-benzamide] it is 291 nM. The figure for `CCN(CC)C(=O)c1ccc(C(=O)N2CC[C@@]3(C)c4cccc(O)c4C[C@@H]2C3(C)C)cc1` [Example 168, N,N-Diethyl-4-[(2R,6S)-10-hydroxy-6,11,11-trimethyl-1,2,5,6-tetrahydro-4H-2,6-methano-benzo[d]azocine-3-carbonyl]-benzamide] is 561 nM. Next, `CC1(C)[C@H]2Cc3c(O)cccc3[C@]1(C)CCN2C(=O)c1ccc(C(=O)N2CCCCC2)cc1` [Example 169, [(2R,6S)-10-Hydroxy-6,11,11-trimethyl-1,2,5,6-tetrahydro-4H-2,6-methano-benzo[d]azocin-3-yl]-[4-(piperidine-1-carbonyl)-phenyl]-methanone]: 950 nM; `CN(Cc1ccccc1)C(=O)c1ccc(C(=O)N2CC[C@@]3(C)c4cccc(O)c4C[C@@H]2C3(C)C)cc1` [Example 170, N-Benzyl-4-[(2R,6S)-10-hydroxy-6,11,11-trimethyl-1,2,5,6-tetrahydro-4H-2,6-methano-benzo[d]azocine-3-carbonyl]-N-methyl-benzamide]: 626 nM. As for `CCCNC(=O)c1ccc(C(=O)N2CC[C@@]3(C)c4cccc(O)c4C[C@@H]2C3(C)C)cc1` [Example 171, 4-[(2R,6S)-10-Hydroxy-6,11,11-trimethyl-1,2,5,6-tetrahydro-4H-2,6-methano-benzo[d]azocine-3-carbonyl]-N-propyl-benzamide], the concentration for half-maximal inhibition (IC50) amounted to 1650 nM. In turn, `C[C@@H]1[C@H]2Cc3ccc(CN)cc3[C@]1(C)CCN2C(=O)c1ccc2nc[nH]c2c1` [Example 172, [(2R,6R,11S)-8-Aminomethyl-6,11-dimethyl-1,2,5,6-tetrahydro-4H-2,6-methano-benzo[d]azocin-3-yl]-(3H-benzoimidazol-5-yl)-methanone] returned an IC50 of 1720 nM. The figure for `CC12CCN(C(=O)c3ccc4nc[nH]c4c3)C(Cc3cc(CN)ccc31)C2(C)C` (stereo not drawn) [Example 173, (9-Aminomethyl-6,11,11-trimethyl-1,2,5,6-tetrahydro-4H-2,6-methano-benzo[d]azocin-3-yl)-(3H-benzoimidazol-5-yl)-methanone] is 1690 nM; for `CC12CCN(C(=O)c3ccc4ncsc4c3)C(Cc3ccccc31)C2` (stereo not drawn) [Example 174, Benzothiazol-6-yl-(6-methyl-1,2,5,6-tetrahydro-4H-2,6-methano-benzo[d]azocin-3-yl)-methanone] it is 406 nM. On to `CC12CCN(C(=O)c3ccc4[nH]cnc4c3)C(Cc3cc(/C(N)=N/O)ccc31)C2(C)C` (stereo not drawn) [Example 175, 3-(1H-Benzoimidazole-5-carbonyl)-N-hydroxy-6,11,11-trimethyl-1,2,3,4,5,6-hexahydro-2,6-methano-benzo[d]azocine-9-carboxamidine], for which half-maximal inhibition (IC50) was put at 344 nM. The IC50 values of the last two molecules are within 1.5-fold of each other. Molecule `Cc1nc(-c2ccc3c(c2)CC2N(C(=O)c4ccc5[nH]cnc5c4)CCC3(C)C2(C)C)no1` (stereo not drawn) [Example 176, (1H-Benzoimidazol-5-yl)-[6,11,11-trimethyl-9-(5-methyl-[1,2,4]oxadiazol-3-yl)-1,2,5,6-tetrahydro-4H-2,6-methano-benzo[d]azocin-3-yl]-methanone] returned an IC50 of 603 nM. The figure for `N#CC12CCN(C(=O)c3ccc4ncsc4c3)C(Cc3ccc(O)cc31)C2` (stereo not drawn) [Example 177, 3-(Benzothiazole-6-carbonyl)-8-hydroxy-2,3,4,5-tetrahydro-1H-2,6-methano-benzo[d]azocine-6-carbonitrile] is 8910 nM.

The IC50 is the midpoint of a concentration-inhibition curve.
